Data reported in publication PMC6960228, “Ethoxysanguinarine, a Novel Direct Activator of AMP-Activated Protein Kinase, Induces Autophagy and Exhibits Therapeutic Potential in Breast Cancer Cells” (Frontiers in Pharmacology, 2020).
Read-outs that look alike come from different tables or passages of the source.

Assays:
[1] = Pharmacokinetic study; type: in vivo, Sprague-Dawley rats; details: rat; for MRT last: read-out: MRT0-t
Experimental: Eleven Sprague–Dawley rats (220–250 g, female) were bought from Hunan SJA Laboratory Animal Co., Ltd. (Changsha, China), and maintained and monitored in a specific pathogen-free environment. They were fasted overnight before the experiments. All rat studies were conducted according to protocols approved by the Animal Ethics Committee of Hubei University of Medicine. Six rats were administered with Eth (2 mg/kg) by intravenous injection, and the other five rats were inoculated with Eth (15 mg/kg) by intragastric injection. Blood samples of […] were collected from the orbit at the time points indicated. The plasma concentrations of Eth were determined by […] (Figure S1). The pharmacokinetic parameters were obtained from the pharmacokinetic software DAS 2.0 (Drug and Statistics Version 2.0).
We then tested the pharmacokinetic features of Eth in Sprague-Dawley rats. To do this, six rats were administered Eth (2 mg/kg) by intravenous (i.v.) injection, and another five rats were inoculated with Eth (15 mg/kg) by intragastric (i.g.) injection. the mean plasma concentration-time profiles are shown in Figures 6J, K, and the main pharmacokinetic parameters are summarized in Table 3. […] Therefore, Eth could be a potential therapeutic agent against BC.

[2] = tested on: AMPK/mTORC1 signaling in MCF-7, MDA-MB-231, and MDA-MB-436 cells; experiment: Western blot of AMPK/mTORC1 signaling; type: cell-based, human; details: western blot
Experimental: Cells were lysed in radioimmunoprecipitation assay buffer containing 50 mM Tris, pH 8.0, 150 mM NaCl, 0.1% SDS, 0.5% sodium deoxycholate, 1% NP-40, 1 mM DTT, 1 mM NaF, 1 mM sodium orthovanadate, 1 mM phenylmethylsulfonyl fluoride (PMSF; Sigma-Aldrich; Merck KGaA), and 1% protease inhibitors cocktail (EMD Millipore, Billerica, MA, USA). Protein concentration was determined using the Bradford method. Equal amounts of sample (25 µg) were separated by SDS-PAGE (8–12% gels). Electrophoresed proteins were then transferred onto polyvinylidene fluoride membranes (EMD Millipore, Billerica, MA, USA). The membranes were blocked with 5% skimmed milk in Tris-buffered saline at room temperature for 1 h. Following blocking, membranes were incubated overnight at 4°C with primary antibodies and then rinsed with Tris-buffered saline with Tween 20. The following primary antibodies were used: anti-Glut3 (1:500; catalog no. sc-74399) (Santa Cruz Biotechnology, Inc., Dallas, TX, USA); anti-LC3 (1:1000; catalog no. 12741), anti-AMPKα (1:1000; catalog no. 2532), anti-phospho-AMPKα (Thr172) (1:1000; catalog no. 2535), anti-phospho-AMPKβ1 (Ser108) (1:1000; catalog no. 4181), anti-AMPKγ1 (1:1000; catalog no. 4187), anti-mTOR (1:1000; catalog no. 2983), anti-phospho-mTOR (Ser2448) (1:1000; catalog no. 5536), anti-P70S6K (1:1000; catalog no. 9202), anti-phospho-P70S6K (Thr389) (1:1000; catalog no. 92775), anti-4E-BP1 (1:1000; catalog no. 9234), anti-phospho-4E-BP1 (Thr37/46) (1:1000; catalog no. 2855), anti-ACC (1:1000; catalog no. 3676), anti-phospho-ACC ([…]) (1:1000; catalog no. 11818), anti-Glut1 (1:1000; catalog no. 12939), anti-Glut4 (1:1000; catalog no. 2213) (All Cell Signaling Technology, Inc., Danvers, MA, USA), and anti-GAPDH (1:5000; catalog no. M20006; Abmart, Shanghai, China). Membranes were then washed, and incubated with horseradish peroxidase-conjugated secondary antibody (1:10000; E030120-01 and E030110-01; EarthOx, LLC, San Francisco, CA, USA) for 1.5 h at room temperature. The protein bands were visualized using SuperSignal® West Pico PLUS Chemiluminescent substrate (catalog no. 34579; Pierce; Thermo Fisher Scientific, Inc., Rockford, IL, USA) ([Zhang et al., 2018]).
Figure 3 Eth induces autophagy through the AMPK/mTORC1 signaling. (A): MCF-7, MDA-MB-231, or MDA-MB-436 cells were treated with increasing concentrations of Eth for 24 h. Western blot was performed using antibodies indicated. […] (D): MDA-MB-231 or MDA-MB-436 cells transfected with pQCXIP-GFP-LC3 plasmid were treated with Eth (2.0 µM) and/or CC (25 µM) for 24 h, and assessed by immunoﬂuorescence analyses. […] (G): MDA-MB-231 or MDA-MB-436 cells transfected with pQCXIP-GFP-LC3 plasmid were treated with Eth (1.0 µM or 1.6 µM) and/or Met (10 mM) for 24 h, and assessed by immunoﬂuorescence analyses. […]

[3] = female, Sprague-Dawley, plasma, iv, i.v. (2 mg/kg)
[4] = female, Sprague-Dawley, plasma, po, i.g. (15 mg/kg)

CCOC1c2c(ccc3c2OCO3)-c2ccc3cc4c(cc3c2N1C)OCO4 (stereo not shown) [Eth, Ethoxysanguinarine] showed an AUC(0-t) [1, 3] of 3640 ± 1560 ng·h/mL, a Cmax [1, 3] of 3580 ± 756 ng/mL and a half-life [1, 3] of 3.54 ± 1.79 h. The clearance ([1]; female, Sprague-Dawley, plasma, iv, i.v. (2 mg/kg), read-out: CLz (converted)) was 9.32 mL/min/kg, the MRT last [1, 3] was 2.18 ± 0.462 h and the AUC(0-t) [1, 4] was 3390 ± 592 ng·h/mL. It also gave a Cmax [1, 4] of 498 ± 110 ng/mL, a half-life [1, 4] of 4.05 ± 1.58 h and an MRT last [1, 4] of 7.03 ± 1.01 h. It also gave a Tmax ([1]; female, Sprague-Dawley, plasma, iv, 2 mg/kg, i.v. (2 mg/kg), read-out: Tmax) of 0.083 h, a Tmax ([1]; female, Sprague-Dawley, plasma, iv, 2 mg/kg, i.v. (2 mg/kg), read-out: time of peak plasma concentration (converted)) of 0.033 h and a Tmax ([1]; female, Sprague-Dawley, plasma, po, 15 mg/kg, i.g. (15 mg/kg), read-out: Tmax) of 2 h. The BA ([1]; i.g. (15 mg/kg)) was 12.43%, the CLz ([1]; i.g. (15 mg/kg)) was 73.63 ± 14.9 mL/min/kg and the “phosphorylation of mTORC1 effectors (mTOR, p70S6K, and 4EBP1)” value [2] was “decreased the phosphorylation of mTORC1 effectors”. For the same compound, the “phosphorylation of AMPKα at Thr172” value ([2]; dose- and time-dependent) was “increased”.
